Source: patent US10227321B2, “Soothing pro-pheromonal composition for mammals” (Melchior Material And Life Science France, priority 2014, dated 2019)
Each block holds one compound with its values, some of them ahead of it.

How the values were obtained:
[1] = Estimated amounts released into the atmosphere from the thermal diffuser; assay type: physicochemical; details: for Daily amount released into the atmosphere: at 100° C.
Experimental: Based on the preceding measurements, we can estimate that the amounts released over the 35-day period by molecules going into each composition are the following (in grams):
By considering that at 100° C., all of product 122:1 decomposes as was shown in Example 3, we can estimate the daily amounts of the various products released into the atmosphere according to the various formulae.

[2] = system: dogs; details: dog, in vivo; cited from earlier work
[3] = In vitro study of 2M2B release: climatic chamber, gas chromatography; assay type: physicochemical; details: solution of Example 2b
Experimental: Conditions A: 1) Solketal/KOH/RI/DMSO/50° C. 2) APTS/MeOH/H2O. Conditions B: 1) Solketal/KOH/RBr/Toluene/DS/2) APTS/MeOH/H2O. Conditions C: 1) CH2Cl2/Et3N/MsCl 2) Solketal/KOH/ROMs/Toluene/DS/Δ3) APTS/MeOH/H2O. GC Method Used: Equipment: GC, Hewlett Packard 5890 Series II Detector FID Column: HP5 30 m, 0.53 mm, 0.88 μm Pressure: 11 psi Injection volume: 1 μL Sample preparation: 4 mg/mL in AcOEt Injector temperature: 270° C. Detector temperature: 280° C. Oven:
The solution prepared in Example 2b is used in a climatic chamber at 100° C. and 30° C. (conditions corresponding either to the temperature of a thermal diffuser or to room temperature). Samples are taken at regular intervals and the disappearance of compound 122:1 and the appearance of C22:1 AKG is measured by gas chromatography. The results are presented in the following table (the percentages are expressed only taking into consideration integration relative to compound 118 and of C18:0 AKG): […]

Compound: CCCCCCCCCCCCCCCCCCOCC(O)CO (centres unmarked) [C18:0 AKG]
% (GC integration relative to compound 118 and C18:0 AKG) ([3]; T = 30° C., 1 d): 0%
% (GC integration relative to compound 118 and C18:0 AKG) ([3]; T = 30° C., 2 d): 0%
% (GC integration relative to compound 118 and C18:0 AKG) ([3]; T = 30° C., 7 d): 0%
% (GC integration relative to compound 118 and C18:0 AKG) ([3]; T = 30° C., 14 d): 0.5%
% (GC integration relative to compound 118 and C18:0 AKG) ([3]; T = 30° C., 21 d): 1%
% (GC integration relative to compound 118 and C18:0 AKG) ([3]; T = 30° C., 28 d): 1%
% (GC integration relative to compound 118 and C18:0 AKG) ([3]; T = 30° C., time 0): 0%
% (GC integration relative to compound 118 and C18:0 AKG) ([3]; T = 100° C., 3 h): 48%
% (GC integration relative to compound 118 and C18:0 AKG) ([3]; T = 100° C., 6 h): 75%
% (GC integration relative to compound 118 and C18:0 AKG) ([3]; T = 100° C., 1 d): 98%
% (GC integration relative to compound 118 and C18:0 AKG) ([3]; T = 100° C., 2 d): 100%
% (GC integration relative to compound 118 and C18:0 AKG) ([3]; T = 100° C., 7 d): 100%
% (GC integration relative to compound 118 and C18:0 AKG) ([3]; T = 100° C., 14 d): 100%
% (GC integration relative to compound 118 and C18:0 AKG) ([3]; T = 100° C., 21 d): 100%
% (GC integration relative to compound 118 and C18:0 AKG) ([3]; T = 100° C., 28 d): 100%
% (GC integration relative to compound 118 and C18:0 AKG) ([3]; climatic chamber, T = 100° C., time 0): 0%

Compound: CCCCC/C=C\C/C=C\CCCCCCCC(=O)O [Linoleic acid]
Daily amount released into the atmosphere ([1]; 2% Formula (2e)): 5.8 mg
Daily amount released into the atmosphere ([1]; 5% Formula (2d)): 5.1 mg
Daily amount released into the atmosphere ([1]; 10% Formula (2c)): 5.5 mg
amount released over the 35-day period ([1]; from Formula 2c): 0.195 grams
amount released over the 35-day period ([1]; from Formula 2e): 0.2 grams
amount released over the 35-day period ([1]; from Formula 2d): 0.188 grams

Further lines, with some results ahead:

Daily amount released into the atmosphere ([1]; 2% Formula (2e)): 0.036 mg
Daily amount released into the atmosphere ([1]; 5% Formula (2d)): 36 mg
Daily amount released into the atmosphere ([1]; 10% Formula (2c)): 0.32 mg
Compound: CC=C(C)C=O [2-Methyl-2-butenal, 2-methyl-2-butenal]
effect on dogs [2]: has an effect on the heartbeat and the behavior of dogs

amount released over the 35-day period ([1]; from Formula 2c): 0.05 grams
amount released over the 35-day period ([1]; from Formula 2e): 0.0063 grams
amount released over the 35-day period ([1]; from Formula 2d): 0.0063 grams
Compound: C/C=C(\C)C1OCC(COCCCCCCCCCCCC/C=C\CCCCCCCC)O1 (centres unmarked) [122:1]

Daily amount released into the atmosphere ([1]; 2% Formula (2e)): 0.14 mg
Daily amount released into the atmosphere ([1]; 5% Formula (2d)): 0.14 mg
Daily amount released into the atmosphere ([1]; 10% Formula (2c)): 1.2 mg
Compound: C/C=C(\C)C1OCC(COCCCCCCCCCCCC/C=C\CCCCCCCC)O1 (centres unmarked) [C22:1 AKG]
